Experiment [1] relates to Hepatitis C virus. Kind of experiment: Antiviral activity against HCV1b Con1 harboring NS3 protease gene infected in human Huh7/Lunet cells assessed as inhibition of viral replication after 3 days by luciferase based transient-transfection assay. It is filed as functional, organism-based, Hepacivirus hominis. As to conditions: Con1, Huh-7, 72 h.
The subject of experiment [2] is Hepatitis C virus. Kind of experiment: Antiviral activity against HCV1b harboring Q80Q polymorphism in NS3 protease gene infected in human Huh7/Lunet cells assessed as inhibition of viral replication after 3 days by luciferase based transient-transfection assay. As to conditions: genotype 1b, Huh-7, 72 h. It is filed as functional, organism-based, Hepacivirus hominis.

The test system of experiment [3] is Hepatitis C virus. Briefly: Ratio of EC50 for wild type HCV1b harboring NS3 protease gene to EC50 for HCV1b B10 harboring NS3 protease S7A, R26K, V48I, T54S mutant. The format is functional, Hepacivirus hominis, genotype 1b.
The test system of experiment [4] is Hepatitis C virus. Kind of experiment: Ratio of EC50 for wild type HCV1b harboring NS3 protease gene to EC50 for HCV1b harboring NS3 protease Q80K mutant. The format is functional, Hepacivirus hominis, genotype 1b.
Experiment [5] relates to Hepatitis C virus. Briefly: Ratio of EC50 for wild type HCV1b harboring NS3 protease gene to EC50 for HCV1b A25 harboring NS3 protease T40A, T54S, V55I, I64L, P67S, Q80K, Q88H, S90A, L153I mutant. It is filed as functional, Hepacivirus hominis, genotype 1b.
In experiment [6] the test system is Hepatitis C virus. Kind of experiment: Ratio of EC50 for wild type HCV1b harboring NS3 protease gene to EC50 for HCV1b B13 harboring NS3 protease R26K, V46I, Q80L mutant. It is filed as functional, Hepacivirus hominis, genotype 1b.
Experiment [7] deals with Hepatitis C virus. Briefly: Ratio of EC50 for HCV1b harboring Q80K polymorphism in NS3 protease gene to EC50 for HCV1b harboring Q80Q polymorphism in NS3 protease gene. The format is functional, Hepacivirus hominis, genotype 1b.
Experiment [8] concerns Hepatitis C virus. Briefly: Antiviral activity against HCV1b harboring Q80K polymorphism in NS3 protease gene infected in human Huh7/Lunet cells assessed as inhibition of viral replication after 3 days by luciferase based transient-transfection assay. The format is functional, organism-based, Hepacivirus hominis. As to conditions: genotype 1b, Huh-7, 72 h.
Experiment [9] has as its system Hepatitis C virus. Kind of experiment: Ratio of EC50 for wild type HCV1b harboring NS3 protease gene to EC50 for HCV1b harboring NS3 protease T54S mutant. The format is functional, Hepacivirus hominis, genotype 1b.
The test system of experiment [10] is Hepatitis C virus. Kind of experiment: Ratio of EC50 for wild type HCV1b harboring NS3 protease gene to EC50 for HCV1b harboring NS3 protease Q80K, T54S mutant. The format is functional, Hepacivirus hominis, genotype 1b.

Take `CCCCCOc1ccc(NC(=S)NC(=O)c2cccnc2)cc1C(F)(F)F`: the EC50 with Hepatitis C virus [1] is 0.0282 µM.
On to `CC[C@@H]1C[C@]1(NC(=O)[C@@H]1C[C@@H]2CN1C(=O)[C@H](C(C)(C)C)NC(=O)OCC(C)(C)CCCCc1cccc3c1CN(C3)C(=O)O2)C(=O)NS(=O)(=O)C1CC1` [VANIPREVIR], for which the EC50 in the experiment on Hepatitis C virus [2] turned out to be 0.00027 µM; in the experiment with Hepatitis C virus [8], 0.00041 µM; with Hepatitis C virus [1], 0.0007 µM. In addition, the “Ratio EC50” value in the experiment with Hepatitis C virus [3] came out at 1.2; in the experiment on Hepatitis C virus [4], 6.6; with Hepatitis C virus [5], 2.2; in the experiment on Hepatitis C virus [6] it was 1.5; in the experiment on Hepatitis C virus [7] it was 1.5; in the experiment on Hepatitis C virus [9], 0.5. Moreover, the “Ratio EC50” value in the experiment on Hepatitis C virus [10] came out at 3.7.
As to `COc1ccc2c(O[C@@H]3C[C@H]4C(=O)N[C@]5(C(=O)NS(=O)(=O)C6CC6)C[C@H]5/C=C\CCCCN(C)C(=O)[C@@H]4C3)cc(-c3nc(C(C)C)cs3)nc2c1C` [SIMEPREVIR], the 50% effective concentration (EC50) in the experiment on Hepatitis C virus [2] is 0.0027 µM; with Hepatitis C virus [8] it was 0.0201 µM; in the experiment on Hepatitis C virus [1], 0.0033 µM. The “Ratio EC50” value worked out at 0.8 in the experiment with Hepatitis C virus [3]; 10.9 in the experiment with Hepatitis C virus [4]; 10.8 with Hepatitis C virus [5]; 1 in the experiment with Hepatitis C virus [6]; 7.5 with Hepatitis C virus [7]; 0.7 in the experiment on Hepatitis C virus [9]. For the same molecule, in the experiment with Hepatitis C virus [10], the “Ratio EC50” value is 7.3.
Regarding `CC(C)(C)OC(=O)N[C@H]1CCCCC/C=C\[C@@H]2C[C@@]2(C(=O)NS(=O)(=O)C2CC2)NC(=O)[C@@H]2C[C@@H](OC(=O)N3Cc4cccc(F)c4C3)CN2C1=O` [DANOPREVIR], the values for the EC50 with Hepatitis C virus [2], with Hepatitis C virus [8] and in the experiment with Hepatitis C virus [1] were 0.00025 µM, 0.00062 µM and 0.0006 µM, respectively. Further, the “Ratio EC50” value in the experiment with Hepatitis C virus [3] turned out to be 1.2; in the experiment on Hepatitis C virus [4], 6.3; with Hepatitis C virus [5], 2.7; in the experiment on Hepatitis C virus [6], 1.7; in the experiment with Hepatitis C virus [7], 1.7; with Hepatitis C virus [9], 1. The “Ratio EC50” value with Hepatitis C virus [10] is given as 5.3.
For `CC(C)(C)NC(=O)N[C@H](C(=O)N1C[C@H]2[C@@H]([C@H]1C(=O)NC(CC1CCC1)C(=O)C(N)=O)C2(C)C)C(C)(C)C` (stereo partly specified) [BOCEPREVIR], the half-maximal effective concentration (EC50) in the experiment with Hepatitis C virus [2] is 0.201 µM; in the experiment on Hepatitis C virus [8] it was 0.0915 µM; in the experiment with Hepatitis C virus [1] it was 0.276 µM. The “Ratio EC50” value turned out to be 9 with Hepatitis C virus [3]; 0.9 in the experiment with Hepatitis C virus [4]; 1.7 with Hepatitis C virus [5]; 1 in the experiment with Hepatitis C virus [6]; 0.4 in the experiment with Hepatitis C virus [7]; 4.7 in the experiment on Hepatitis C virus [9]. In addition, the “Ratio EC50” value in the experiment with Hepatitis C virus [10] was 1.7.
On to `CCC[C@H](NC(=O)[C@@H]1[C@H]2CCC[C@H]2CN1C(=O)[C@@H](NC(=O)[C@@H](NC(=O)c1cnccn1)C1CCCCC1)C(C)(C)C)C(=O)C(=O)NC1CC1` [TELAPREVIR], for which the EC50 in the experiment on Hepatitis C virus [2] is 0.176 µM; with Hepatitis C virus [8] it was 0.072 µM; with Hepatitis C virus [1] it was 0.377 µM. Further, the “Ratio EC50” value in the experiment with Hepatitis C virus [3] is 6.2; in the experiment on Hepatitis C virus [4] it was 1; in the experiment on Hepatitis C virus [5], 1; in the experiment on Hepatitis C virus [6], 1; with Hepatitis C virus [7], 0.5; in the experiment on Hepatitis C virus [9], 5.6. Further, the “Ratio EC50” value with Hepatitis C virus [10] came to 2.3.

For the origin of these results see ChEMBL document CHEMBL1687806, “Susceptibility of treatment-naive hepatitis C virus (HCV) clinical isolates to HCV protease inhibitors” (Antimicrob Agents Chemother, 2010).
